Test results reported in publication PMC6571673, “Cytostatic and Cytotoxic Natural Products against Cancer Cell Models” (Molecules, 2019).

Tested on: MDA-MB-231
Test: Co-localization of probe with organelle trackers, live cell imaging
Assay type: cell-based, human
Conditions: live cells, 2 µM
Excerpt: It is important to determine the intracellular accumulation of compound 9 as this may aid in identifying its intracellular interactions. To facilitate these experiments, a series of orthogonal fluorescent organelle markers were used for co-localization studies. The organelle marker set included indicators for the lysosome (Lysotracker Red), the mitochondria (MitoTracker Deep Red), and the endoplasmic reticulum (ER tracker Blue/White). Where applicable, nuclei were stained with Hoechst (Blue). All these markers were compatible with BODIPY-FL (green) to allow for flexible combinations. […] First, to evaluate the accumulation of compound 9a after 30 min treatment at 1 µM, washout experiments were conducted as shown in Figure 7A in the presence of Hoechst nuclear stain. Distinct green specks were observed near the nucleus of the cell.
Co-localization studies were conducted in 8-well chambered coverslips (ibidi GmbH µ-slide # 80826) for MDA-MB-231. Coverslips were first coated with 0.1% Gelatin for 30 min for better cell adherence. Cells were then plated in phenol red free medium at a density of 4 × 10^4 cells per well and incubated at 37 °C overnight. […]

COC1=CC23CCCN2CCc2cc4c(cc2C3C1OC(=O)CCC1=[N+]2C(=Cc3c(C)cc(C)n3[B-]2(F)F)C=C1)OCO4 (stereo not shown) [9a]
co-localization with endoplasmic reticulum (ER-Tracker Blue/White): Co-localization of probe 9a with ER-Tracker Blue/White
